Where two headings read alike, the source gives them in different places.
Legend:
ECD of CaSR = biological target: T1, ECD of CaSR (Homo sapiens, UniProt P41180); test: Ca2+ binding to the ECD by Trp fluorescence signal change; conditions: for Kd: read-out: Kd, 2-phase Hill equation
T1 construct: made in house; host or cells: HEK293S (GnTI-) suspension culture, secreted
T1 sequence (P41180 20-612): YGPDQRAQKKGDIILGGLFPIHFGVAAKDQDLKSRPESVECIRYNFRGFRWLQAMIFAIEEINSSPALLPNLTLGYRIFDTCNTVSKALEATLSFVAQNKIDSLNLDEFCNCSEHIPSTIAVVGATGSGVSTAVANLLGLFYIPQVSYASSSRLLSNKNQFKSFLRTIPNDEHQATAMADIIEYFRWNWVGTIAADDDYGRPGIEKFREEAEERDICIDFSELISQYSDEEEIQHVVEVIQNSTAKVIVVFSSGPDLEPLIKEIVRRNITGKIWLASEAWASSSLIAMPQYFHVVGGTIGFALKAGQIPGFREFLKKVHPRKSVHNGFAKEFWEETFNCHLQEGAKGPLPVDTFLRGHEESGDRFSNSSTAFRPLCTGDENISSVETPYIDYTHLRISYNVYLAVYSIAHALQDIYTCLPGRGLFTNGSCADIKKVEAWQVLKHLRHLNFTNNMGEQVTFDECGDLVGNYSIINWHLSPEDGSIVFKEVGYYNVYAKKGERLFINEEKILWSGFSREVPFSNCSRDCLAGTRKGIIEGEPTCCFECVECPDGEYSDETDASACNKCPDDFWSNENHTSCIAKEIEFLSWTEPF

CaSR [1] = biological target: T2, CaSR (Homo sapiens, UniProt P41180); set-up: host or cells: HEK cells, transient; conditions: HEK cells, in the presence of 150 mM NaCl; read-out: EC50 for intracellular calcium responses; cited from earlier work
T2 sequence (P41180 20-1078): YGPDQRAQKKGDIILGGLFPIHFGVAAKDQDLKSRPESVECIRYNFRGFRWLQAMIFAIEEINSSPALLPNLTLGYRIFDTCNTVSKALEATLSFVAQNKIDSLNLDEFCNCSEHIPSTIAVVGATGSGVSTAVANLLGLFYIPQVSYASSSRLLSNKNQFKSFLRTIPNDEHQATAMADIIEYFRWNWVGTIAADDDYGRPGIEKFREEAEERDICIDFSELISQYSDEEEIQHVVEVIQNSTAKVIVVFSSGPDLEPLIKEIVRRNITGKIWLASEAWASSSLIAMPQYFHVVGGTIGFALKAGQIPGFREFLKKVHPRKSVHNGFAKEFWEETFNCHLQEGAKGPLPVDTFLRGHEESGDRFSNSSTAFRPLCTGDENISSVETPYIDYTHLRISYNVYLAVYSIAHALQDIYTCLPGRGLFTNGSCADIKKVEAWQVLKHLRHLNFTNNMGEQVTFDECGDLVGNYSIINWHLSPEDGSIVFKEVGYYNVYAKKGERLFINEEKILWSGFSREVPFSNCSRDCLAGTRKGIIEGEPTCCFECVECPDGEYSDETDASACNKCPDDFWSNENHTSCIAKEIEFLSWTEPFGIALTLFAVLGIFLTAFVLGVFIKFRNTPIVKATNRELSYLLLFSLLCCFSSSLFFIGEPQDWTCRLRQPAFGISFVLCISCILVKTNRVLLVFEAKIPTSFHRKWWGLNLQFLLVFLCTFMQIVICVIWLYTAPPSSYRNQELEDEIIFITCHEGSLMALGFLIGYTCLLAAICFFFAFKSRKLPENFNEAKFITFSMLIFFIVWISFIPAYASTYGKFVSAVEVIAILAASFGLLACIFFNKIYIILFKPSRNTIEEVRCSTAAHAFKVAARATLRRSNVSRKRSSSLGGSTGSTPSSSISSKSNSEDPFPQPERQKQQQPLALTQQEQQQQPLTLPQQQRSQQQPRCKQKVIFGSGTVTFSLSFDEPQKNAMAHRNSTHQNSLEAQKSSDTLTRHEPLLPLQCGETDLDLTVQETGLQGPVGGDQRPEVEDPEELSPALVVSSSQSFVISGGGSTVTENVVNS

CaSR [2] = biological target: T3, CaSR (Bos taurus, UniProt P35384); conditions: X. laevis oocytes; cited from earlier work
T3 construct: host or cells: X. laevis oocytes
T3 sequence (P35384 20-1085): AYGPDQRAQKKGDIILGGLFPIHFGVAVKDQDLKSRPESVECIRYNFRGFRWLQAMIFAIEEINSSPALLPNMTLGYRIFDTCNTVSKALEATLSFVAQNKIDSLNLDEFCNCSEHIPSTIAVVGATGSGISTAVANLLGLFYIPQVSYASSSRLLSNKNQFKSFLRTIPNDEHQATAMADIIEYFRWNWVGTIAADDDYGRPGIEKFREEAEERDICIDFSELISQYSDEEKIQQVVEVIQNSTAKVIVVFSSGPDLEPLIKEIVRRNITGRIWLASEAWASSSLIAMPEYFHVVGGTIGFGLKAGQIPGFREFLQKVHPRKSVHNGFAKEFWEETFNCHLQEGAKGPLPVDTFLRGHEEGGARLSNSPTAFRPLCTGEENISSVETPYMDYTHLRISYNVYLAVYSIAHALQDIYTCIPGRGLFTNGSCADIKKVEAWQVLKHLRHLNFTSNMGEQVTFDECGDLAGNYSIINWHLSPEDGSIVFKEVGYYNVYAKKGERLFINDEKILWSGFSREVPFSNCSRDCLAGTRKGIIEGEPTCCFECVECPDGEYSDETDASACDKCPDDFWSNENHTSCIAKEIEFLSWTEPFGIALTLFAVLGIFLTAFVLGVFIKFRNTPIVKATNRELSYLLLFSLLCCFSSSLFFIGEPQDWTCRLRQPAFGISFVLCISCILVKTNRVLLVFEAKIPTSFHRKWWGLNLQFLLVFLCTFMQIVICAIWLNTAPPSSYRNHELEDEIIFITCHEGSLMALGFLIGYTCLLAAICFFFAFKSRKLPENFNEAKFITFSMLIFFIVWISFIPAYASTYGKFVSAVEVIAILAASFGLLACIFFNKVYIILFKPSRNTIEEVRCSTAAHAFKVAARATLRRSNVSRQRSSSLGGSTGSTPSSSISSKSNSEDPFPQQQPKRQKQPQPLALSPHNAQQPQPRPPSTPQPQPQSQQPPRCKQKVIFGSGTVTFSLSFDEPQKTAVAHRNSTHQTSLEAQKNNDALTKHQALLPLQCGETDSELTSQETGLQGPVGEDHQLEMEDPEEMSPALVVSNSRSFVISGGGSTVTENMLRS

CaSR [3] = biological target: T2, CaSR; test: [Ca^2+]i signaling (Fura-2) evoked by [Mg^2+]o/[Ca^2+]o in CaSR-expressing HEK293 cells (5001 cell population assay); type: cell-based; set-up: expressed in transfected cells
Protocol: Measurement of intracellular free Ca^2+ was assessed as described by Huang, et al^33. Briefly, wild type CaSR, or its mutants, were transiently transfected into HEK293 cells grown on coverslips and cultured for 48 h. The cells were subsequently loaded for 15 min using 2 μM Fura-2 AM in 2 mL physiological saline buffer (10 mM HEPES, 140 mM NaCl, 5 mM KCl, 1.0 mM MgCl2 and pH 7.4). The coverslips were mounted in a bath chamber on the stage of a Leica DM6000 fluorescence microscope. The cells were alternately illuminated with 340 or 380 nm light, and the fluorescence at an emission wavelength 510 nm was recorded in real time as the [Ca^2+]o and/or [Mg^2+]o was increased in a stepwise manner in the presence or absence of 0.25 mM TNCA in buffer (10 mM HEPES, 155 mM NaCl, 5 mM KCl, 2 mM NaH2PO4, 0.5 mM MgCl2 and pH 7.4). The ratio of the emitted fluorescence intensities resulting from excitation at both wavelengths was utilized as a surrogate for changes in [Ca^2+]i and was further plotted and analyzed as a function of [Ca^2+]o. All experiments were performed at room temperature. The signals from 20 to 100 single cells were recorded for each measurement. Oscillations were identified as three successive fluctuations in [Ca^2+]i after the initial peak. Determination of the Effect of TNCA on Mg^2+-Evoked [Ca^2+]i Signaling by Stimulation of CaSR in Cell Populations.
Changes in the intracellular Ca^2+ concentration [Ca^2+ ]i elicited by extracellular Mg^2+ ([Mg^2+]o) in a population of cells were measured by fluorimetry as described previously^33. A cell line stably expressing CaSR (designated the “5001 cell line”) was seeded on 13.5×20-mm coverslips and cultured in DMEM. After reaching 95% confluence, cells were washed three times using loading buffer (20 mM HEPES [pH 7.4], 125 mM NaCl, 5 mM KCl, 1.25 mM CaCl2, 1 mM MgCl2, 1 mM NaH2PO4, 1% glucose, and 1% BSA) and subsequently incubated with 4 μM Fura-2 and 4 μM pluronic F127 for 20 minutes at 37° C. to enable sufficient dye loading in the same buffer. After removing the excess Fura-2, coverslips with cells were diagonally positioned in a quartz cuvette filled with 3 ml of experimental buffer (125 mM NaCl, 5 mM KCl, 0.5 mM CaCl2, 0.5 mM MgCl2, 1% glucose, and 1% BSA). Measurements of Fura-2 fluorescence at 510 nm when excited at 340 or 380 nm were performed on a QM1 fluorescence spectrophotometer (PTI). The emission ratio of 340/380 was calculated and used to reflect the changes in [Ca^2+]i when different concentrations of [Mg^2+]o were applied to the cells.
To examine the co-activation of CaSR by TNCA and [Mg^2+]o or [Ca^2+]o, different concentrations of TNCA were placed in the experimental buffer with a fixed concentration of [Ca^2+]o and varying concentrations of [Mg^2+]o, or vice versa, as described in the results section. The effects of other ligands were analyzed by comparing the changes in [Ca^2+ ]i produced by [Mg^2+]o alone or by co-application of Mg^2+ with other ligands. The EC50 of [Mg^2+]o obtained during incubation with various concentrations of TNCA is compared with that observed in the presence of [Mg^2+]o alone. The EC50 changes were plotted as a function of TNCA concentration and the curve was fit to the Hill equation. The activation of CaSR by the TNCA, functioning as a co-agonist with [Mg^2+]o, is indicated by the increasingly leftward-shifted EC50 for [Mg^2+]o as the concentration of TNCA increases (FIG. 6).

CaSR [4] = biological target: T2, CaSR; test: ERK1/2 phosphorylation in 5001 cells stably expressing hCaSR; type: cell-based; set-up: expressed in transfected cells
Protocol: The 5001 cell line stably expressing hCaSR was starved in serum-free DMEM medium supplemented with 0.2% (w/v) BSA overnight, followed by washing 3-times with HBSS and a subsequent 10 minute HBSS incubation after 12 hours. To induce ERK1/2 phosphorylation, varying concentrations of [Mg^2+]o (0-50 mM) or [Ca^2+]o (0-30 mM) with or without 0.5 mM TNCA were added to cells and incubated for 10 minutes at 37° C. The cells were then lysed with Pierce RIPA buffer (ThermoFisher Scientific). Total protein concentration was measured using the BioRad assay. Lysates containing 100 μg of total protein were loaded onto 4-20% gradient SDS-PAGE gels for separation. After electrophoresis, proteins on the gel were transferred to nitrocellulose membranes and further analyzed by western blotting. Anti-phospho-p44/42 ERK (1:1000 dilution) and anti-p44/42 (1:2000) polyclonal antibodies were utilized as probes to detect the phosphorylated ERK1/2 and total ERK1/2 respectively. A chemiluminescent detection method (AP Conjugate Substrate Kit, Bio-Rad) was applied to detect phosphor-ERK1/2 and total-ERK1/2. The respective bands on western blots were evaluated by densitometry. The EC50 of [Mg^2+]o- or [Ca^2+]o-dependent responses were obtained by fitting the [Mg^2+]o or [Ca^2+]o concentration-response curves with the Hill equation (Eq.1).

Structure (SMILES)	Hill number, 2-phase Hill equation (ECD of CaSR; first phase)	Kd (ECD of CaSR; first phase) [µM]	Hill number, 2-phase Hill equation (ECD of CaSR; second phase)	Kd (ECD of CaSR; second phase) [µM]	EC50 (CaSR [1]) [µM]	EC50 (CaSR [2]) [µM]	co-agonism with [Mg^2+]o in activating [Ca^2+]i oscillations (CaSR [3])	potency relative to Phe in reducing the EC50 for [Mg^2+]o or [Ca^2+]o activation of [Ca^2+]i signaling (CaSR [3]; WT and mutant CaSRs)	EC50 (CaSR [3]; determined indirectly through the EC50 change of [Mg^2+]o at different TNCA concentrations, 0.5 mM [Ca^2+]o, read-out: apparent EC50 of TNCA as co-agonist) [µM]	activation of the receptor by the exogenous compound alone (CaSR [3]; without metal agonist)	co-agonism with [Mg^2+]o in activating ERK1/2 phosphorylation (CaSR [4])
[Ca+2] [Ca^2+, calcium]	1.1	900	3.8	10000	3000 to 5000	3000					
O=C(O)[C@@H]1Cc2c([nH]c3ccccc23)CN1 [TNCA, L-1,2,3,4-tetrahydronorharman-3-carboxylic acid]							strong co-agonist	greater than 1000 fold	≥ 2	cannot activate the receptor	strong co-agonist

Source: patent US10639299B2, “Calcium sensing receptors, ligands, compositions, and methods of use” (Georgia State University Research Foundation, Inc., priority 2016, dated 2020)
